Experiments:
Tg2576 mice [1] = test: Stress response: serum corticosterone after overnight fasting; assay type: in vivo, mouse; conditions: FIG. 5
Text: (§1) Male Tg2576 mice and non-transgenic littermates were purchased from Taconic Farms (Germantown, N.Y.). The Tg2576 mice overexpress the 695-isoform of the human amyloid precursor protein containing a double mutation originally identified in a large Swedish kindred (familial AD); spatial learning and memory deficits are evident at 9-11 months of age, prior to the formation of mature amyloid plaques (Kawarabayashi et al., “Age-Dependent Changes in Brain, CSF, and Plasma Amyloid β Protein in the Tg2576 Transgenic Mouse Model of Alzheimer's Disease,” J. Neurosci., 21:372-381 (2001) and Westerman et al., “The Relationship Between Aβ and Memory in the Tg2576 Mouse Model of Alzheimer's Disease.,” J. Neurosci., 22:1858-1867 (2002), which are hereby incorporated by reference). Mice were individually housed in ventilated microisolator cages.
Corticosterone and insulin were measured using the following procedures. For serum preparation, tail bleedings were carried out under a heating lamp, and the blood was collected into MICROTAINER™ Brand Tubes (Becton Dickinson, Franklin Lanes, N.J.). After allowing the blood to clot for 30-40 min, samples were centrifuged for 90 sec at 6000 g and stored at −80° C. until use. Serum corticosterone levels were measured using an enzyme immunoassay kit (Assay Designs, Inc., Ann Arbor, Mich.) with a 1 μl aliquot of each sample diluted 1:100 with assay buffer. The sensitivity of the assay was 26.99 pg/ml. Serum insulin levels were determined using the Ultra Sensitive Rat Insulin ELISA kit (Crystal Chem, Inc., Downers Grove, Ill.) using 5 μl of undiluted sample and mouse insulin standard. The sensitivity of the assay under these conditions was 100 pg/ml. All samples were measured in duplicate for both assays. Plates were read using the Bio-Tek ELx800UV Universal Microplate Reader.
The following supplemented diet was used. Tablets of rosiglitazone maleate (Avandia™, GlaxoSmithKline) were provided by the Creighton University Diabetes Center. […]

Tg2576 mice [2] = test: Spatial learning and memory, 8-arm radial maze; conditions: 15 weeks on drug-supplemented diet, approximately 4 mg/kg/day, FIG. 6
Tg2576 mice [3] = test: Insulin response: insulin-induced decline in blood glucose levels; assay type: in vivo, mouse
Text: as §1
Insulin was administered and glucose was measured using the following procedures. A stock of human insulin (recombinant, 28.7 U.S.P. units/mg; Sigma) was prepared by dissolving 1 mg of powder in 1 ml of dH20 containing 1% glacial acetic acid. A 1:150 dilution in dH20 was used as the injection stock. Mice were administered the insulin solution by intraperitoneal injection. […]
Insulin was administered to non-fasted Tg2576 and wild-type mice at 0.75 U/kg, and blood glucose levels were monitored. […]

[4] = Body weights and food consumption on rosiglitazone-supplemented diet (tolerability); assay type: in vivo, mouse
Text: as §1
The following supplemented diet was used. Tablets of rosiglitazone maleate (Avandia™, GlaxoSmithKline) were provided by the Creighton University Diabetes Center. The tablets were pulverized and mixed with the AIN-93G purified rodent diet at a final dose of 30 mg/kg of food (Dyets, Inc.). This dose was chosen based on the results of studies in rats using a diet supplemented with rosiglitazone (Diep et al., “Structure, Endothelial Function, Cell Growth, and Inflammation in Blood Vessels of Angiotensin II-Infused Rats: Role of Peroxisome Proliferator-Activated Receptor-γ,” Circulation, 105:2296-2302 (2002), which is hereby incorporated by reference. Unmodified AIN-93G pellets were purchased as the control diet (Dyets, Inc.). The mice were placed on the diets at 9 months of age.
To provide evidence for a relationship between insulin resistance and aberrant stress responses of Tg2576 mice, the animals were subjected to a diet containing the thiazolidinedione, rosiglitazone, in order to increase insulin sensitivity. The thiazolidinediones act as agonists of peroxisome proliferator-activated receptor-γ (“PPARγ”), which is a ligand-inducible transcription factor that regulates glucose and lipid metabolism (Desvergne et al., “Peroxisome Proliferator-Activated Receptors: Nuclear Control of Metabolism,” Endocr. Rev., 20:649-688 (1999), which is hereby incorporated by reference). The agonists of PPARγ attenuate insulin resistance by improving peripheral insulin sensitivity, and such agonists are currently being used clinically in the management of type 2 diabetes (Wagstaff et al., “Rosiglitazone: A Review of its Use in the Management of Type 2 Diabetes Mellitus,” Drugs 62:1805-1837 (2002), which is hereby incorporated by reference). […] More particularly, the following Table 1 summarizes body weights and food consumption for wild-type mice on the regular diet (Wt; n=7), Tg2576 mice on the diet supplemented with rosiglitazone maleate (Tr, AV; n=7), and for Tg2576 mice on the regular diet (Tr, C; n=5). Data are reported as means and standard deviations for the indicated weeks.

Tg2576 mice [5] = assay type: in vivo
Text: as §1
The following supplemented diet was used. Tablets of rosiglitazone maleate (Avandia™, GlaxoSmithKline) were provided by the Creighton University Diabetes Center. The tablets were pulverized and mixed with the AIN-93G purified rodent diet at a final dose of 30 mg/kg of food (Dyets, Inc.). […]

[6] = 10-month-old Tg2576 mice, supplemented diet 4 weeks

SMILES: CN(CCOc1ccc(CC2SC(=O)NC2=O)cc1)c1ccccn1.O=C(O)/C=C\C(=O)O (centres unmarked) [rosiglitazone, rosiglitazone maleate]
- Serum corticosterone levels after overnight fasting versus wild-type mice (Tg2576 mice [1]; [6]): not significantly different
- Serum corticosterone levels following overnight fasting versus Tg2576 mice on regular diet (Tg2576 mice [1]; [6]): well below the levels reached in Tg2576 mice on the regular diet
- Effect on stress response (figure legend) (Tg2576 mice [1]; Tg2576 mice): normalizes the stress response
- Number of reference memory errors versus control Tg2576 mice (Tr,C) (Tg2576 mice [2]): fewer than the number of reference memory errors made by Tg2576 not given the drug
- Number of reference memory errors versus wild-type mice (Tg2576 mice [2]): as many reference memory errors as the wild-type mice
- Insulin response of Tg2576 mice on unsupplemented diet versus Tg2576 mice on supplemented diet (Tg2576 mice [3]; 10-month-old Tg2576 mice, 4 weeks on diet, insulin 0.75 U/kg): much weaker insulin response
- Effect on insulin response (figure legend) (Tg2576 mice [3]; FIGS. 4A and 4B, Tg2576 mice, supplemented diet for 4 weeks): normalizes the insulin response
- Tolerability of the diet containing rosiglitazone ([4]; mice, diet 30 mg/kg of food): well tolerated
- Amount of rosiglitazone-supplemented food consumed over time ([4]; mouse, in vivo): decreased over time
- Weight of mice, Week 1 ([4]; mouse, in vivo): 26.3 ± 3.2 g
- Weight of mice, Week 4 ([4]; mouse, in vivo): 26.2 ± 3.1 g
- Weight of mice, Week 7 ([4]; mouse, in vivo): 27.1 ± 3.3 g
- Deaths in the course of the study (Tg2576 mice [5]; 7 Tg2576 mice on rosiglitazone-supplemented diet (2 of 7 on unsupplemented diet died)): None
- Observed behaviour on handling (Tg2576 mice [5]; Tg2576 mice on rosiglitazone-supplemented diet): calmer and easier to handle

Reference: US20050004179A1, “Methods and materials for treating, detecting, and reducing the risk of developing Alzheimer's Disease” (priority 2003, published 2005)
